According to publication PMC5097156, “Potent and selective chemical probe of hypoxic signalling downstream of HIF-α hydroxylation via VHL inhibition” (Nature Communications, 2016):

Legend:
Assay in all cases: biochemical
Parameters in all cases: CEREP ExpresSProfile competition binding, remaining control specific binding of reference compound
Conditions in all cases: radioligand binding; read-out: Mean % of control specific binding (±sd)
V1a (h) = biological target: T1, V1a (h) (Homo sapiens, UniProt P37288)
T1 construct: gene AVPR1A
T1 sequence (P37288 whole entry): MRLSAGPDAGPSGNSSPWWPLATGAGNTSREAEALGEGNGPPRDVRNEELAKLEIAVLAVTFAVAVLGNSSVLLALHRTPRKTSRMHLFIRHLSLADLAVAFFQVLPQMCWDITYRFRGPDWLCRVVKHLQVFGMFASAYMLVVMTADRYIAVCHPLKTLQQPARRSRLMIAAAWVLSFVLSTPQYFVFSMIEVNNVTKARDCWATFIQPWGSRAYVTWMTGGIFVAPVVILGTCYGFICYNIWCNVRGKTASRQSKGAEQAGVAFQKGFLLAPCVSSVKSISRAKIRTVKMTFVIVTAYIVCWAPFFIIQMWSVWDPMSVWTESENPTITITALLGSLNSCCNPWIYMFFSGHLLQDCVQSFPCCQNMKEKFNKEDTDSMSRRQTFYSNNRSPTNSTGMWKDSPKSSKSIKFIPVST

H2 (h) = biological target: T2, H2 (h) (Homo sapiens, UniProt P25021)
T2 construct: gene HRH2
T2 sequence (P25021 whole entry): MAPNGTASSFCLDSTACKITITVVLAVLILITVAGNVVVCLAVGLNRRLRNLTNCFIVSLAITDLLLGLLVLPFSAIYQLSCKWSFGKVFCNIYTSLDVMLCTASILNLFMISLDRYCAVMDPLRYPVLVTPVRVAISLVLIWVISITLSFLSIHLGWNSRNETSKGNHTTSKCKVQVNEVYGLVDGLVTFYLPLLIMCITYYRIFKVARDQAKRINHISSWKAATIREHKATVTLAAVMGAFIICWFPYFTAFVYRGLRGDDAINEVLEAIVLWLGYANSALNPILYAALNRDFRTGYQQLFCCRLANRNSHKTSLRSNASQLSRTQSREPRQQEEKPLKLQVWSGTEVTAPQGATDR

D1 (h) = biological target: T3, D1 (h) (Homo sapiens, UniProt P21728)
T3 construct: gene DRD1
T3 sequence (P21728 whole entry): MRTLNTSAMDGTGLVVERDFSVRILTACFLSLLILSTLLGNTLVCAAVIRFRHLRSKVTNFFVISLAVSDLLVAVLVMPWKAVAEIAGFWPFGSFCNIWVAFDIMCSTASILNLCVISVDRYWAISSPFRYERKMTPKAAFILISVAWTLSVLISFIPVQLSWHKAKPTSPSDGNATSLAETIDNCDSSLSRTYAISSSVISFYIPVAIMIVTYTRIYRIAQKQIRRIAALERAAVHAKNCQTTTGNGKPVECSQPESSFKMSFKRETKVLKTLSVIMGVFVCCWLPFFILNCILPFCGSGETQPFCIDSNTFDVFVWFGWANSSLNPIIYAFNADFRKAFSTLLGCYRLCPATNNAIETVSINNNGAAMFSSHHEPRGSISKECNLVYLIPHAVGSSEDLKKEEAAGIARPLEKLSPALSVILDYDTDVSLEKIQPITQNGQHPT

5-HT3 (h) = biological target: T4, 5-HT3 (h) (Homo sapiens, UniProt P46098)
T4 construct: gene HTR3A
T4 sequence (P46098 whole entry): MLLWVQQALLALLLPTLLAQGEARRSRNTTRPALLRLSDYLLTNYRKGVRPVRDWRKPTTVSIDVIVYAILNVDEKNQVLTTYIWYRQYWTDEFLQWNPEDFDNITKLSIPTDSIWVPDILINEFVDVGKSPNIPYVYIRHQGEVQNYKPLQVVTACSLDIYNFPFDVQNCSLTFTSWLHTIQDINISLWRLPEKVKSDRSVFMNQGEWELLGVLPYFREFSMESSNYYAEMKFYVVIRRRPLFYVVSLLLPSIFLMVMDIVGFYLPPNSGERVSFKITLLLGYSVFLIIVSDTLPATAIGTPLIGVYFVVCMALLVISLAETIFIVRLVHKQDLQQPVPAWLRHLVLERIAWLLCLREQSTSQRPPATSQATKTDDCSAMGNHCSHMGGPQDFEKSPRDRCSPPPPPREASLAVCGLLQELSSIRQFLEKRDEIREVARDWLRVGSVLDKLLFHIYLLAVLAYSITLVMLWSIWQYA

5-HT5a (h) = biological target: T5, 5-HT5a (h) (Homo sapiens, UniProt P47898)
T5 construct: gene HTR5A

Y2 (h) = biological target: T6, Y2 (h) (Homo sapiens, UniProt P49146)
T6 construct: gene NPY2R
T6 sequence (P49146 whole entry): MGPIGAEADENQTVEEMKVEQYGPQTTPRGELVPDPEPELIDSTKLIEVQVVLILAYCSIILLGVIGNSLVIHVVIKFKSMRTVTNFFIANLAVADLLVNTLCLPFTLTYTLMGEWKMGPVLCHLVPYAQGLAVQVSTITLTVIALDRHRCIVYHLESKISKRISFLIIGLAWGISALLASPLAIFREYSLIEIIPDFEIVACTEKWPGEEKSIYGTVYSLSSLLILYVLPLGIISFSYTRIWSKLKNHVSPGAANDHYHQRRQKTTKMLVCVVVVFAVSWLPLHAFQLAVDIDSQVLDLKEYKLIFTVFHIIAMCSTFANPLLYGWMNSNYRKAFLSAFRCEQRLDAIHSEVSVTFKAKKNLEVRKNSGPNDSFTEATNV

M3 (h) = biological target: T7, M3 (h) (Homo sapiens, UniProt P20309)
T7 construct: gene CHRM3
T7 sequence (P20309 whole entry): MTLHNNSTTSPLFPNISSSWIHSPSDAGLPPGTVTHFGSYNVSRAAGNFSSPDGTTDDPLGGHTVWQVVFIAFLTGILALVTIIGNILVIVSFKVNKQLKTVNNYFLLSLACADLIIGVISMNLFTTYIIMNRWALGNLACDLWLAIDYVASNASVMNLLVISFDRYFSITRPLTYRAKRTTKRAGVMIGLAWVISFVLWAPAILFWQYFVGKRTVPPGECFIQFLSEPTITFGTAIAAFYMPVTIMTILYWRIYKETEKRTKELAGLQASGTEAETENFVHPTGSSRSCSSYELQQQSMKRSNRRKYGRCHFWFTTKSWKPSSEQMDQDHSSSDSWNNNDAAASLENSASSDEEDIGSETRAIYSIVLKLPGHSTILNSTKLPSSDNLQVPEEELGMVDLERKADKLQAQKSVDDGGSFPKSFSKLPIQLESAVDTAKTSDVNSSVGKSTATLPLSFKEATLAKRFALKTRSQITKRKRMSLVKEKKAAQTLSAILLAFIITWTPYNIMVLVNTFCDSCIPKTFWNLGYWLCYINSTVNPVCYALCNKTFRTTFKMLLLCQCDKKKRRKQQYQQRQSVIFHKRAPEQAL

GAL2 (h) = biological target: T8, GAL2 (h) (Homo sapiens, UniProt O43603)
T8 construct: gene GALR2
T8 sequence (O43603 whole entry): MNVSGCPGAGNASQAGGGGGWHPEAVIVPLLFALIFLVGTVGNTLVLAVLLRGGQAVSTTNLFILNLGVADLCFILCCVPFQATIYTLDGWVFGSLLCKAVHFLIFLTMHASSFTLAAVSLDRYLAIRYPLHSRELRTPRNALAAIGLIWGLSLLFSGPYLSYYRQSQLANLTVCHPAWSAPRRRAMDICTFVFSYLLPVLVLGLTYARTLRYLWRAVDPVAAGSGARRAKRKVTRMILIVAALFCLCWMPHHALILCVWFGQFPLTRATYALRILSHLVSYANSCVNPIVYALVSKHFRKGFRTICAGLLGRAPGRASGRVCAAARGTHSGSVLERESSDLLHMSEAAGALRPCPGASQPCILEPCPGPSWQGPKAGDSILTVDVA

5-HT2B (h) = biological target: T9, 5-HT2B (h) (Homo sapiens, UniProt P41595)
T9 construct: gene HTR2B
T9 sequence (P41595 whole entry): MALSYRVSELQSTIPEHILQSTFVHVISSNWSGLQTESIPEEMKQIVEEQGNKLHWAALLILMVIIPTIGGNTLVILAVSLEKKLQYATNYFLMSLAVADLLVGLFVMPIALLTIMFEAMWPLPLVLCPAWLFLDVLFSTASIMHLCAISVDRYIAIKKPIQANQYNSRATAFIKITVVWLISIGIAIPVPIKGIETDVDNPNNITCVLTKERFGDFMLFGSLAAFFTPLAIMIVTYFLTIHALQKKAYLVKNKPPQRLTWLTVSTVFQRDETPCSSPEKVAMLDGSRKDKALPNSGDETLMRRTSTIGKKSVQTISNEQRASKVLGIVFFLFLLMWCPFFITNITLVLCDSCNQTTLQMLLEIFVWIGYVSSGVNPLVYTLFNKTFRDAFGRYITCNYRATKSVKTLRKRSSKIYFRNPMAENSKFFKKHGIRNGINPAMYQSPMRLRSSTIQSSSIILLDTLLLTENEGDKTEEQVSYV

Y1 (h) = biological target: T10, Y1 (h) (Homo sapiens, UniProt P25929)
T10 construct: gene NPY1R
T10 sequence (P25929 whole entry): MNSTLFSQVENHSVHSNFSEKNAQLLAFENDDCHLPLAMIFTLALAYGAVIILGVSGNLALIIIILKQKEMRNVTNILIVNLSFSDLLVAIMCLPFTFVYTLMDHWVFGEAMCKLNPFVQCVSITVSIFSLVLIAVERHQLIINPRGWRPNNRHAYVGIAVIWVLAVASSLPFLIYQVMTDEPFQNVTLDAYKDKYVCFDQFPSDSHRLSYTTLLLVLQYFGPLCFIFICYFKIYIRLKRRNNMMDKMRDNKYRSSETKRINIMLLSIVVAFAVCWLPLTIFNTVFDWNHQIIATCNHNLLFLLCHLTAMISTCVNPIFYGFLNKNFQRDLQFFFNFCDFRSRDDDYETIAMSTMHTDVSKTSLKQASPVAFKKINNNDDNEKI

M2 (h) = biological target: T11, M2 (h) (Homo sapiens, UniProt P08172)
T11 construct: gene CHRM2
T11 sequence (P08172 whole entry): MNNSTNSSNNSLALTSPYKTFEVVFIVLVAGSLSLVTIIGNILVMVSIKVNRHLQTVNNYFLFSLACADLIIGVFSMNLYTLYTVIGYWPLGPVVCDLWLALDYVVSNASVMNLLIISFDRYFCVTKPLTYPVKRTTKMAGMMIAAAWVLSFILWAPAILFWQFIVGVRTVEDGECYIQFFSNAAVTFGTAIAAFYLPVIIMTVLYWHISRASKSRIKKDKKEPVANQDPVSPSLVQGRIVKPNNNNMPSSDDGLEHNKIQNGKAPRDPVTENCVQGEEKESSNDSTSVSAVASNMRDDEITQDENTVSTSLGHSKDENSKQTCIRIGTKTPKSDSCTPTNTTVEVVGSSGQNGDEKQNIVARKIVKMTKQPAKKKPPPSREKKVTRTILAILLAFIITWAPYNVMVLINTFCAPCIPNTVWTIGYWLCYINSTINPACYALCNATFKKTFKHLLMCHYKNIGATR

B2 (h) = biological target: T12, B2 (h) (Homo sapiens, UniProt P30411)
T12 construct: gene BDKRB2
T12 sequence (P30411 whole entry): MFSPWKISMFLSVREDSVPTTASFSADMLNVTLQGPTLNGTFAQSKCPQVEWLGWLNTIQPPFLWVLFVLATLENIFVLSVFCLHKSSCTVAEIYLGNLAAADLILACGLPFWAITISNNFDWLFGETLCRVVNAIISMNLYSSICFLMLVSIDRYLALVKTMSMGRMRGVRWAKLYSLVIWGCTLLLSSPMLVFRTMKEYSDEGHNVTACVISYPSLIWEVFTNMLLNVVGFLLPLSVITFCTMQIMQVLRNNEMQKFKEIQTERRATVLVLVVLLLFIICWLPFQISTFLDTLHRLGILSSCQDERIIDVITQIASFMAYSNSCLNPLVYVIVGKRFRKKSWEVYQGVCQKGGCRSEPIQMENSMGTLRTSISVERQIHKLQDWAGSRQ

Cc1ncsc1-c1ccc(CNC(=O)[C@@H]2C[C@@H](O)CN2C(=O)[C@@H](NC(=O)C2(C#N)CC2)C(C)(C)C)cc1 [VH298]
remaining binding at 50 µM (V1a (h)): 95%
remaining binding at 50 µM (H2 (h)): 140%
remaining binding at 50 µM (D1 (h)): 103%
remaining binding at 50 µM (5-HT3 (h)): 92%
remaining binding at 50 µM (5-HT5a (h)): 105%
remaining binding at 50 µM (Y2 (h)): 97%
remaining binding at 50 µM (M3 (h)): 95%
remaining binding at 50 µM (GAL2 (h)): 87%
remaining binding at 50 µM (5-HT2B (h)): 91%
remaining binding at 50 µM (Y1 (h)): 106%
remaining binding at 50 µM (M2 (h)): 94%
remaining binding at 50 µM (B2 (h)): 101%
